From patent US20230295131A1, “INHIBITORS OF RHO-ASSOCIATED COILED-COIL KINASE” (Angion Biomedica Corp., priority 2020, published 2023) come the findings set out here.

One experiment addresses T1, ROCK1 (Homo sapiens, UniProt Q13464).
T1 construct: T7 phage fusion (kinase-tagged phage) or DNA tag for qPCR detection
The experiment is described as follows: ROCK1 kinase binding affinity, DiscoverX KINOMEscan KdELECT. To be noted: 11-point 3-fold dilution. The method, then: (§1) 1. ROCK1 and ROCK2 kinase assays: The ROCK1 and ROCK2 kinase binding affinities of compounds in this disclosure were determined by DiscoverX's KINOMEscan™ KdELECT technology (https://www.discoverx.com/kinomescan-elect-kinase-screening-and-profiling-services): Kinase-tagged T7 phage strains were prepared in an E. coli host derived from the BL21 strain. E. coli were grown to log-phase and infected with T7 phage and incubated with shaking at 32° C. until lysis. The lysates were centrifuged and filtered to remove cell debris. The remaining kinases were produced in HEK-293 cells and subsequently tagged with DNA for qPCR detection. […] The liganded beads were blocked with excess biotin and washed with blocking buffer (SeaBlock (Pierce), 1% BSA, 0.05% Tween 20, 1 mM DTT) to remove unbound ligand and to reduce nonspecific binding. […] Kds were determined using an 11-point 3-fold compound dilution series with three DMSO control points. […] The compounds were then diluted directly into the assays such that the final concentration of DMSO was 0.9%. All reactions performed in polypropylene 384-well plate. Each was a final volume of 0.02 ml. […] The kinase concentration in the eluates was measured by qPCR.

The target of another experiment is T2, ROCK2 (Homo sapiens, UniProt O75116).
T2 construct: T7 phage fusion (kinase-tagged phage) or DNA tag for qPCR detection
As to the kind of experiment: ROCK2 kinase binding affinity, DiscoverX KINOMEscan KdELECT. To be noted: for ROCK2 Selectivity: selectivity for ROCK2 over ROCK1 from Kd. The protocol: as §1

[1] abbreviates: KINOMEscan KdELECT, 11-point 3-fold dilution, read-out: Kd (μM) ROCK2.

Molecules are shown by their SMILES. Where a name gives a salt, the structure may show the parent alone. Read-outs that look alike come from different tables or passages of the source. Where only a bound is given, the exact number is not on record here.

As a reminder, the Kd is the equilibrium constant for the complex coming apart.

T1 sequence (Q13464 whole entry, the tested form may be a part): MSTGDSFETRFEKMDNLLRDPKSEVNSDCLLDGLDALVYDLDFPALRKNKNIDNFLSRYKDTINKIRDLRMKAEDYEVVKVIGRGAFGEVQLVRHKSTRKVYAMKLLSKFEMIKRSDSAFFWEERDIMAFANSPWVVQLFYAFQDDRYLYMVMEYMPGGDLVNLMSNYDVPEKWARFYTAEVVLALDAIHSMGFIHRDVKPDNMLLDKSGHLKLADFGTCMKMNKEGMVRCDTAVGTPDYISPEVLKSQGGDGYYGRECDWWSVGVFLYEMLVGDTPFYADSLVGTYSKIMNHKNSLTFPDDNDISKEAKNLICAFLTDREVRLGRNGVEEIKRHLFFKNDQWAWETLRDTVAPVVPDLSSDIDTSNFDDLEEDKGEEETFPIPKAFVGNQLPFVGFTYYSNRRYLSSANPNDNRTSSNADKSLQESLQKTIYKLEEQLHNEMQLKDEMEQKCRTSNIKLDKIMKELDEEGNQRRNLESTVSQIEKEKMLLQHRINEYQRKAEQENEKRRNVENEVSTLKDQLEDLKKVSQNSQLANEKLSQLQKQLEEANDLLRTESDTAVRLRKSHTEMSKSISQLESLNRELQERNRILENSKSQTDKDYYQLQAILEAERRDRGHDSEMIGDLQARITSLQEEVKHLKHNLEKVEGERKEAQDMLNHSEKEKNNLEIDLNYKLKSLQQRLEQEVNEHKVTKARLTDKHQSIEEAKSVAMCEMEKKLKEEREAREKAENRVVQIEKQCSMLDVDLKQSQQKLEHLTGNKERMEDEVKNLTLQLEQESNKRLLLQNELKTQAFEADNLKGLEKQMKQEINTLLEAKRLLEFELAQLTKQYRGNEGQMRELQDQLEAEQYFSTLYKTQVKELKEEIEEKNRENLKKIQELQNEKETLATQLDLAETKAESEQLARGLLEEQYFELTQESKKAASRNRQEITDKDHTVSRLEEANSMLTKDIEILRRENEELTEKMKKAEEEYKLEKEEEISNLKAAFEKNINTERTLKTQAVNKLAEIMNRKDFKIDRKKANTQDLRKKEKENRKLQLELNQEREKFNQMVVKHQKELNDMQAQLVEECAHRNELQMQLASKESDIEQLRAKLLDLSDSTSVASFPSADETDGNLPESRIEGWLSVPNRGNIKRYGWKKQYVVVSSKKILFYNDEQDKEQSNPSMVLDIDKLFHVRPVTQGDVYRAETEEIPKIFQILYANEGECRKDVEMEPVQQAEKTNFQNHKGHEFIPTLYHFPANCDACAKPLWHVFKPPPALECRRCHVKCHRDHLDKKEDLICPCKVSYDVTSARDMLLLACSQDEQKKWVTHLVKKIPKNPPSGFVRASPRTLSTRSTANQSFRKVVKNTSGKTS
T2 sequence (O75116 whole entry, the tested form may be a part): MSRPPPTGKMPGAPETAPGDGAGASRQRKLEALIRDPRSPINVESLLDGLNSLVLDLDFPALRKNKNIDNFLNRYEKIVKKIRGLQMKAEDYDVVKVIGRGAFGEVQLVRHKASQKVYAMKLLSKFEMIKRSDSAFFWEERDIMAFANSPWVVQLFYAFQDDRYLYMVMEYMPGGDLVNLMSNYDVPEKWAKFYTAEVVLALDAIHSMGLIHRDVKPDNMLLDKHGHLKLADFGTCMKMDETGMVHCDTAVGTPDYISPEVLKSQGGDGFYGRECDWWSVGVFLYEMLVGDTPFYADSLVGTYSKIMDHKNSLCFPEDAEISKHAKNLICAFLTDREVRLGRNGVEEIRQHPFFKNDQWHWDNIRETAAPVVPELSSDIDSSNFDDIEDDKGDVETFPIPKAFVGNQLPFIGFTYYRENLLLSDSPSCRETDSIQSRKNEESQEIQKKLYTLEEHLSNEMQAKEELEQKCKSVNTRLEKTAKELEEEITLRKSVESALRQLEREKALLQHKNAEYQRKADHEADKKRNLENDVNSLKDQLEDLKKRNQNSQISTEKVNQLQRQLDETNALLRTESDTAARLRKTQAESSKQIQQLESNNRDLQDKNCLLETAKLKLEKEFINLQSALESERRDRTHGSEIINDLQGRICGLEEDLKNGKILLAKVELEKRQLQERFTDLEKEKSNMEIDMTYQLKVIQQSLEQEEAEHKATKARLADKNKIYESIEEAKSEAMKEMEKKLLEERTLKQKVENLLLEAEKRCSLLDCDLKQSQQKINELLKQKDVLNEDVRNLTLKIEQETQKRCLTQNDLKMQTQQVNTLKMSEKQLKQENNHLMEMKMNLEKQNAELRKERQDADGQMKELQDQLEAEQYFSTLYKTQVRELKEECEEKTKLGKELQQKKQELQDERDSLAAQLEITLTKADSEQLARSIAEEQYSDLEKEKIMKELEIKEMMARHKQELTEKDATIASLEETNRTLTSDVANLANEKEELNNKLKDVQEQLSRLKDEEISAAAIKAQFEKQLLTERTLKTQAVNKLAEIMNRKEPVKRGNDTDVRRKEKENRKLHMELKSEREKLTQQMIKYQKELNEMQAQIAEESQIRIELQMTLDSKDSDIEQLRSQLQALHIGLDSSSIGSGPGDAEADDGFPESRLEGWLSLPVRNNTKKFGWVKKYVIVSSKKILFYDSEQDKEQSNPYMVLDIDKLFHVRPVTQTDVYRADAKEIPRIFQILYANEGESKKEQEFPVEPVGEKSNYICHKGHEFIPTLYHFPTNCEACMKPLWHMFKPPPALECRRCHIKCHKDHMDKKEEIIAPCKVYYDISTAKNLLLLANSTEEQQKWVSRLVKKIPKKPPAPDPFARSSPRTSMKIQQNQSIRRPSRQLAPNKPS

For `O=C(O)[C@H]1CC[C@@H](Nc2nccc(-c3nccc(C#Cc4ccc5[nH]ncc5c4)n3)n2)CC1` [Ex. 92, (1s,4s)-4-((4-((1H-Indazol-5-yl)ethynyl)-[2,4′-bipyrimidin]-2′-yl)amino)cyclohexanecarboxylic acid], the Kd at ROCK1 lay within 0.1 to 0.99 µM; at ROCK2 (setting [1]) it was 0.01 to 0.099 µM. In addition, the “ROCK2 Selectivity” value on ROCK2 is listed as “* (<50-fold selectivity for ROCK2)”.

With `CC(Nc1nccc(-c2nccc(C#Cc3ccc4[nH]ncc4c3)n2)n1)c1ccc(F)cn1` (stereo not drawn) [Ex. 28, 4-((1H-Indazol-5-yl)ethynyl)-N-(1-(5-fluoropyridin-2-yl)ethyl)-[2,4′-bipyrimidin]-2′-amine], the dissociation constant Kd on ROCK1 fell in the range of 1 to 9.9 µM; on ROCK2 (setting [1]), 0.01 to 0.099 µM. The “ROCK2 Selectivity” value at ROCK2 is listed as “* (<50-fold selectivity for ROCK2)”.

As to `Fc1cc(F)c(F)c(CNc2nccc(-c3nccc(C#Cc4ccc5[nH]ncc5c4)n3)n2)c1` [Ex. 37, 4-((1H-Indazol-5-yl)ethynyl)-N-(2,3,5-trifluorobenzyl)-[2,4′-bipyrimidin]-2′-amine], the Kd at ROCK1 was in the range of 1 to 9.9 µM; on ROCK2 (setting [1]), 0.01 to 0.099 µM. In addition, the “ROCK2 Selectivity” value on ROCK2 was “*** (151 to 500-fold selectivity for ROCK2)”.

For `Cc1ccnc(F)c1CNc1nccc(-c2nccc(C#Cc3ccc4[nH]ncc4c3)n2)n1` [Ex. 70, 4-((1H-Indazol-5-yl)ethynyl)-N-((2-fluoro-4-methylpyridin-3-yl)methyl)-[2,4′-bipyrimidin]-2′-amine], the Kd at ROCK1 is 10 to 100 µM; at ROCK2 (setting [1]), 0.01 to 0.099 µM. For the same compound, the “ROCK2 Selectivity” value at ROCK2 is given as “**** (>500-fold selectivity for ROCK2)”.

On to `C(#Cc1ccnc(-c2ccnc(NC[C@H]3CCCO3)n2)n1)c1ccc2[nH]ncc2c1` [Ex. 34, (R)-4-((1H-Indazol-5-yl)ethynyl)-N-((tetrahydrofuran-2-yl)methyl)-[2,4′-bipyrimidin]-2′-amine], for which the results for the Kd at ROCK1 and on ROCK2 (setting [1]) were 0.1 to 0.99 µM and < 0.01 µM, respectively. At ROCK2, the “ROCK2 Selectivity” value was “*** (151 to 500-fold selectivity for ROCK2)”.

As to `C(#Cc1ccnc(-c2ccnc(NCc3ccc4c(c3)CNC4)n2)n1)c1ccc2[nH]ncc2c1` [Ex. 20, 4-((1H-Indazol-5-yl)ethynyl)-N-(isoindolin-5-ylmethyl)-[2,4′-bipyrimidin]-2′-amine trifluoroacetate salt], the Kd was 0.1 to 0.99 µM on ROCK1 and 0.01 to 0.099 µM at ROCK2 (setting [1]). Moreover, the “ROCK2 Selectivity” value on ROCK2 is “* (<50-fold selectivity for ROCK2)”.

As for `C(#Cc1ccnc(-c2ccnc(NCc3cc4ccccc4cn3)n2)n1)c1ccc2[nH]ncc2c1` [Ex. 25, 4-((1H-Indazol-5-yl)ethynyl)-N-(isoquinolin-3-ylmethyl)-[2,4′-bipyrimidin]-2′-amine], the Kd at ROCK1 was 0.1 to 0.99 µM; on ROCK2 (setting [1]) it was 0.01 to 0.099 µM. Further, the “ROCK2 Selectivity” value at ROCK2 is given as “* (<50-fold selectivity for ROCK2)”.

On to `Fc1cccc(F)c1CNc1nccc(-c2nccc(C#Cc3ccc4[nH]ncc4c3)n2)n1` [Ex. 27, 4-((1H-Indazol-5-yl)ethynyl)-N-(2,6-difluorobenzyl)-[2,4′-bipyrimidin]-2′-amine], for which the Kd at ROCK1 was 10 to 100 µM; at ROCK2 (setting [1]), 0.1 to 0.99 µM. Besides, on ROCK2, the “ROCK2 Selectivity” value was “** (50 to 150-fold selectivity for ROCK2)”.

On to `FC1(F)Oc2ccc(CNc3nccc(-c4nccc(C#Cc5ccc6[nH]ncc6c5)n4)n3)cc2O1` [Ex. 13, 4-((1H-Indazol-5-yl)ethynyl)-N-((2,2-difluorobenzo[d][1,3]dioxol-5-yl)methyl)-[2,4′-bipyrimidin]-2′-amine], for which the Kd on ROCK1 is 10 to 100 µM; at ROCK2 (setting [1]), 0.1 to 0.99 µM. Besides, on ROCK2, the “ROCK2 Selectivity” value is “** (50 to 150-fold selectivity for ROCK2)”.

Consider `Cc1cnc(F)c(CNc2nccc(-c3nccc(C#Cc4ccc5[nH]ncc5c4)n3)n2)c1` [Ex. 72, 4-((1H-Indazol-5-yl)ethynyl)-N-((2-fluoro-5-methylpyridin-3-yl)methyl)-[2,4′-bipyrimidin]-2′-amine], for which the Kd at ROCK1 and at ROCK2 (setting [1]) was 10 to 100 µM each time. Moreover, the “ROCK2 Selectivity” value at ROCK2 was “* (<50-fold selectivity for ROCK2)”.

For the compound `Fc1ncccc1CNc1nccc(-c2nccc(C#Cc3cc(F)c4[nH]ncc4c3)n2)n1` [Ex. 42, 4-((7-Fluoro-1H-indazol-5-yl)ethynyl)-N-((2-fluoropyridin-3-yl)methyl)-[2,4′-bipyrimidin]-2′-amine], the Kd at ROCK1 was 1 to 9.9 µM; at ROCK2 (setting [1]), 0.01 to 0.099 µM. Besides, the “ROCK2 Selectivity” value at ROCK2 is “** (50 to 150-fold selectivity for ROCK2)”.

For `O=C(CNc1nccc(-c2nccc(C#Cc3ccc4[nH]ncc4c3)n2)n1)N1CCOCC1` [Ex. 41, 2-((4-((1H-Indazol-5-yl)ethynyl)-[2,4′-bipyrimidin]-2′-yl)amino)-1-morpholinoethanone], the Kd on ROCK1 was 1 to 9.9 µM; at ROCK2 (setting [1]), < 0.01 µM. The “ROCK2 Selectivity” value on ROCK2 is “*** (151 to 500-fold selectivity for ROCK2)”.

In the case of `C(#Cc1ccnc(-c2ccnc(NCc3ccco3)n2)n1)c1ccc2[nH]ncc2c1` [Ex. 40, 4-((1H-Indazol-5-yl)ethynyl)-N-(furan-2-ylmethyl)-[2,4′-bipyrimidin]-2′-amine], the equilibrium dissociation constant (Kd) on ROCK1 was 0.1 to 0.99 µM; at ROCK2 (setting [1]) it was 0.01 to 0.099 µM. The “ROCK2 Selectivity” value on ROCK2 is “* (<50-fold selectivity for ROCK2)”.

On to `Fc1ccc(CNc2nccc(-c3nccc(C#Cc4ccc5[nH]ncc5c4)n3)n2)nc1` [Ex. 3, 4-((1H-Indazol-5-yl)ethynyl)-N-((5-fluoropyridin-2-yl)methyl)-[2,4′-bipyrimidin]-2′-amine], for which the dissociation constant (Kd) is 1 to 9.9 µM at ROCK1 and < 0.01 µM on ROCK2 (setting [1]). Also, the “ROCK2 Selectivity” value on ROCK2 is recorded as “*** (151 to 500-fold selectivity for ROCK2)”.

Regarding `O=c1[nH]cccc1CNc1nccc(-c2nccc(C#Cc3ccc4[nH]ncc4c3)n2)n1` [Ex. 21, 3-(((4-((1H-Indazol-5-yl)ethynyl)-[2,4′-bipyrimidin]-2′-yl)amino)methyl)pyridin-2(1H)-one], the results for the Kd on ROCK1 and at ROCK2 (setting [1]) were 0.1 to 0.99 µM and 0.01 to 0.099 µM, respectively. Also, the “ROCK2 Selectivity” value on ROCK2 is listed as “** (50 to 150-fold selectivity for ROCK2)”.

In the case of `CC1(CNc2nccc(-c3nccc(C#Cc4ccc5[nH]ncc5c4)n3)n2)CCCO1` (stereo not drawn) [Ex. 53, 4-((1H-Indazol-5-yl)ethynyl)-N-((2-methyltetrahydrofuran-2-yl)methyl)-[2,4′-bipyrimidin]-2′-amine], the Kd on ROCK1 lay in the range of 1 to 9.9 µM; on ROCK2 (setting [1]) it was 0.01 to 0.099 µM. Moreover, on ROCK2, the “ROCK2 Selectivity” value is listed as “** (50 to 150-fold selectivity for ROCK2)”.

With `Fc1cccc(CNc2nccc(-c3nccc(C#Cc4ccc5[nH]ncc5c4)n3)n2)c1F` [Ex. 26, 4-((1H-Indazol-5-yl)ethynyl)-N-(2,3-difluorobenzyl)-[2,4′-bipyrimidin]-2′-amine], the values for the Kd at ROCK1 and on ROCK2 (setting [1]) were 1 to 9.9 µM and 0.01 to 0.099 µM, respectively. In addition, the “ROCK2 Selectivity” value on ROCK2 is listed as “** (50 to 150-fold selectivity for ROCK2)”.

As to `C(#Cc1ccnc(-c2ccnc(NC[C@@H]3CCCO3)n2)n1)c1ccc2[nH]ncc2c1` [Ex. 35, (S)-4-((1H-Indazol-5-yl)ethynyl)-N-((tetrahydrofuran-2-yl)methyl)-[2,4′-bipyrimidin]-2′-amine], the Kd on ROCK1 is 0.1 to 0.99 µM; at ROCK2 (setting [1]), < 0.01 µM. Besides, at ROCK2, the “ROCK2 Selectivity” value is recorded as “*** (151 to 500-fold selectivity for ROCK2)”.

As to `COCCNc1nccc(-c2nccc(C#Cc3ccc4[nH]ncc4c3)n2)n1` [Ex. 75, 4-((1H-Indazol-5-yl)ethynyl)-N-(2-methoxyethyl)-[2,4′-bipyrimidin]-2′-amine], on ROCK1, the Kd was 1 to 9.9 µM. At ROCK2, the Kd was < 0.01 µM and the “ROCK2 Selectivity” value is recorded as “*** (151 to 500-fold selectivity for ROCK2)”.
